Assay results published in patent US20240092761A1, “QUINAZOLINE COMPOUNDS AND METHODS OF USE” (IAMBIC THERAPEUTICS, INC., priority 2022, published 2024).

How the values were obtained:
CDK4/Cyclin D1 = CDK4/Cyclin D1 (Homo sapiens (Human), UniProt P11802); assay: CDK4/Cyclin D1 Mobility Shift Assay (MSA); format: biochemical; conditions: 0.2 mM ATP, read-out: CDK4/ CyclinD1 MSA IC50
Excerpt: CDK4/Cyclin D1 Mobility Shift Assay (MSA)
The purpose CDK4/Cyclin D1 assay is to evaluate the inhibition (% inhibition and IC50 values) in the presence of small molecule inhibitors by using a fluorescence based microfluidic mobility shift assay. CDK4/Cyclin D1 catalyzes the production of ADP from ATP that accompanies the phosphoryl transfer to the substrate peptide 5-FAM-Dyrktide (5-FAM-RRRFRPASPLRGPPK) (Perkin Elmer Peptide 34). The mobility shift assay (MSA) electrophoretically separates the fluorescently labelled peptides (substrate and phosphorylated product) following the kinase reaction. Both substrate and product are measured, and the ratio of these values is used to generate % conversion of substrate to product by the LabChip EZ Reader. Typical reaction solutions contained 2% DMSO (+/−inhibitor), 10 mM MgCl2, 1 mM EGTA, 0.05% BSA, 2 mM DTT, 0.2 mM ATP, 0.01% Brig-35, 1.5 uM 5-FAM-Dyrktide, 2.5 nM CDK4/Cyclin D1 in 50 mM HEPES buffer at pH 7.5. The reaction was initiated with the addition of substrate solution, following a 30-minute pre-incubation of enzyme and inhibitor at 22° C. in the reaction mix. The reaction was stopped after 180 minutes by the addition of 75 uL of 500 mM EDTA and measured on a Perkin Elmer EZ reader instrument. IC50 determinations were made from a plot of the fractional velocity as a function of inhibitor concentration fit to the 4 parameters IC50 equation.

[1] = target: CDK2/Cyclin E1 full length (Homo sapiens (Human), UniProt P24941); assay: CDK2/Cyclin E1 Full Length ADP-Glo Kinase Assay; format: biochemical; conditions: 20 uM ATP, read-out: CDK2/ CyclinE1 IC50
Outline: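 ADP-Glo luminescence read-out of ADP formed by 0.328 nM wild-type full-length CDK2/Cyclin E1, 90 min at room temperature with 0.75 uM substrate and 20 uM ATP (Km 64.78 uM), after 30 min enzyme–inhibitor pre-incubation; 50 mM HEPES pH 7.5, 2% DMSO. Four-parameter IC50 fit.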

MCF-7 cells = assay: Cell Growth Inhibition, MCF-7 (CellTiterGlo, 6 days); format: cell-based; conditions: Homo sapiens, MCF7, 144 h; MCF-7, 6-day treatment, CellTiterGlo 2.0
Outline: (§1)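 Compounds were run in half-log series, usually 10–10,000 nM, with 500 cells/well of OVCAR-3 or MCF-7 in RPMI plus 10% FBS. After a 6-day culture at 37 °C, viability was read by CellTiterGlo luminescence. Inhibition relative to control was fitted (four-parameter, variable slope) for IC50.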

CDK6/Cyclin D3 = CDK6/Cyclin D3 (Homo sapiens (Human), UniProt Q00534); assay: CDK6/Cyclin D3 ADP-Glo Kinase Assay; format: biochemical; conditions: 100 uM ATP, read-out: CDK6/ CyclinD3 IC50
Sequence of CDK6/Cyclin D3 (Q00534 whole entry): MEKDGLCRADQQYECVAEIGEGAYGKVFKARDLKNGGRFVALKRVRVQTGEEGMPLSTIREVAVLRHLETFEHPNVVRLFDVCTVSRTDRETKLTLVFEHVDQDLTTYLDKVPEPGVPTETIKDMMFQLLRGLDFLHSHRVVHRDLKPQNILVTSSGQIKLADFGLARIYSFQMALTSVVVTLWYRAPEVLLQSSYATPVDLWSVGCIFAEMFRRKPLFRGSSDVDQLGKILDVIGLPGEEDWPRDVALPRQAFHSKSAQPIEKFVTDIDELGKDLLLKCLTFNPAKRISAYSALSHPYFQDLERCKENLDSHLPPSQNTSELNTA
Sequence of CDK6/Cyclin D3 (P30281 whole entry partner): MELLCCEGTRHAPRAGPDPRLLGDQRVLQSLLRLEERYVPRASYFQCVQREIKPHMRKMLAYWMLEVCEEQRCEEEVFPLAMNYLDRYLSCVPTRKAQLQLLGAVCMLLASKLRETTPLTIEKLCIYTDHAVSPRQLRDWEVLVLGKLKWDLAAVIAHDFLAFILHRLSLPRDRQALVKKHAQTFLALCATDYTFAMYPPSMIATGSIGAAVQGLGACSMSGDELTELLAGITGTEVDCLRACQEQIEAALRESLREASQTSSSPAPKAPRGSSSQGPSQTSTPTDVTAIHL
Outline: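 Luminescent ADP-Glo read-out of ADP produced, used to fit IC50 (4-parameter equation on fractional velocity against inhibitor concentration). Kinase reaction: enzyme and inhibitor together 30 min, then ATP-containing substrate added for 90 min, all at room temperature.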

OVCAR-3 cells = assay: Cell Growth Inhibition, OVCAR-3 (CellTiterGlo, 6 days); format: cell-based; conditions: Homo sapiens, 144 h; OVCAR-3, 6-day treatment, CellTiterGlo 2.0
Outline: as §1

CDK1/Cyclin B1 = CDK1/Cyclin B1 (Homo sapiens (Human), UniProt P06493); assay: CDK1/Cyclin B1 ADP-Glo Kinase Assay; format: biochemical; conditions: 80 uM ATP
Sequence of CDK1/Cyclin B1 (P06493 whole entry): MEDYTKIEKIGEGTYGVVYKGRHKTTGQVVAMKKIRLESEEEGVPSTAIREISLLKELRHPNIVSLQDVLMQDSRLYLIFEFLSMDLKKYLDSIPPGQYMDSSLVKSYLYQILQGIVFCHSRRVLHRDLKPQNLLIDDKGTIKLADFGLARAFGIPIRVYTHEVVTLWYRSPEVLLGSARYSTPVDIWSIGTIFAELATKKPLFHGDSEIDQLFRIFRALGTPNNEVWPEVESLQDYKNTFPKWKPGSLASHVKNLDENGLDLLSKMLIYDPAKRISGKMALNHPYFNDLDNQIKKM
Sequence of CDK1/Cyclin B1 (P14635 whole entry partner): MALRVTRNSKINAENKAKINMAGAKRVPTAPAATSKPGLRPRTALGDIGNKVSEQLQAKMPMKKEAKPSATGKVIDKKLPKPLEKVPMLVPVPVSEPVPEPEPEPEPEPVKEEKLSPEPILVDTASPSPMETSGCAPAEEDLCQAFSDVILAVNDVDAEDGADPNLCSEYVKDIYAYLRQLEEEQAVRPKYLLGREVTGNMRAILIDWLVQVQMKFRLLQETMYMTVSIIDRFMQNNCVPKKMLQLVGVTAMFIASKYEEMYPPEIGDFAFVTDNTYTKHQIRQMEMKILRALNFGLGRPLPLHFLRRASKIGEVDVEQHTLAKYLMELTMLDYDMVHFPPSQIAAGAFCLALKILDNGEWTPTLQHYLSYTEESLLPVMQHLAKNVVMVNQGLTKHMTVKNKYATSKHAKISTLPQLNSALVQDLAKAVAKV
Outline: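 Luminescent ADP-Glo detection of ADP produced over 90 min at room temperature. Enzyme complex 4.917 nM, pre-exposed 30 min to inhibitor; ATP 80 µM (near Km 78.6 µM), substrate 0.75 µM, HEPES pH 7.5, 2% DMSO. Fractional velocity fitted to 4-parameter IC50 equation.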

Sequence of CDK4/Cyclin D1 (P11802 whole entry): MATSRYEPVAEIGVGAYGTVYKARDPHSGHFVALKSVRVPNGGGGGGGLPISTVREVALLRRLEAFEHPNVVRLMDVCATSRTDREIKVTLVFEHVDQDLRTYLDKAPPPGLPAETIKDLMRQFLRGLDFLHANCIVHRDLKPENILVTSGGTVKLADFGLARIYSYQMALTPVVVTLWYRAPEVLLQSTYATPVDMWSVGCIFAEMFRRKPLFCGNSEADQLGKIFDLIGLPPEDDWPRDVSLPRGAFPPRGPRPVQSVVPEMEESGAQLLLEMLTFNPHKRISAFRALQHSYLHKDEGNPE
Sequence of CDK4/Cyclin D1 (P24385 whole entry partner): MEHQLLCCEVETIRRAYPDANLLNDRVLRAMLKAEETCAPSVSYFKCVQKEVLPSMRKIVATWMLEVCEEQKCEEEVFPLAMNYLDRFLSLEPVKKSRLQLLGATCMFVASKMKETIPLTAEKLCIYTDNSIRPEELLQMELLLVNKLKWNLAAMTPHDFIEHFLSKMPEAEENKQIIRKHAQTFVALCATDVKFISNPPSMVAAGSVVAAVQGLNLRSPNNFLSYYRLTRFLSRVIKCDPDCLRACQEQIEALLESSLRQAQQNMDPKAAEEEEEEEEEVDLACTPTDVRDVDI

| IC50 (CDK4/Cyclin D1) [nM] | IC50 [1] [nM] | IC50 (MCF-7 cells) [nM] | IC50 (CDK6/Cyclin D3) [nM] | IC50 (OVCAR-3 cells) [nM] | IC50 (CDK1/Cyclin B1) [nM] | Compound |
| --- | --- | --- | --- | --- | --- | --- |
| < 200 | < 200 | 500 to 2000 | < 200 | 500 to 2000 | 200 to 500 | CN1CC2(CCN(c3cccc4cnc(NC5CCN(S(C)(=O)=O)CC5)nc34)C2)C1 [Example 24, 8-(2-methyl-2,6-diazaspiro[3.4]octan-6-yl)-N-(1-(methylsulfonyl)piperidin-4-yl)quinazolin-2-amine] |
| < 200 | 500 to 2000 | 500 to 2000 | < 200 | 500 to 2000 | > 2000 | CC(=O)N1CCC2(CCN(c3cc(C(F)F)cc4cnc(Nc5ccc(N6CCN(C)CC6)cc5)nc34)C2)C1 (stereo not shown) [Example 51, 1-(7-(6-(difluoromethyl)-2-((4-(4-methylpiperazin-1-yl)phenyl)amino)quinazolin-8-yl)-2,7-diazaspiro[4.4]nonan-2-yl)ethan-1-one] |
| < 200 | < 200 | > 2000 | < 200 | > 2000 | 500 to 2000 | CS(=O)(=O)N1CCC(Nc2ncc3cccc(N4CCC5(C4)CC(F)(F)C5)c3n2)CC1 [Example 3, 8-(2,2-difluoro-6-azaspiro[3.4]octan-6-yl)-N-(1-(methylsulfonyl)piperidin-4-yl)quinazolin-2-amine] |
| < 200 | < 200 | 500 to 2000 | < 200 | 500 to 2000 | < 200 | CS(=O)(=O)N1CCC(Nc2ncc3cccc(N4CC5(CC(O)C5)C4)c3n2)CC1 [Example 18, 2-(2-((1-(methylsulfonyl)piperidin-4-yl)amino)quinazolin-8-yl)-2-azaspiro[3.3]heptan-6-ol] |
| < 200 | 200 to 500 | 500 to 2000 | 200 to 500 | 500 to 2000 | > 2000 | CC(=O)N1CCC2(CCN(c3cccc4cnc(Nc5ccc6c(c5)CCN(C)C6)nc34)C2)C1 (stereo not shown) [Example 38, 1-(7-(2-((2-methyl-1,2,3,4-tetrahydroisoquinolin-6-yl)amino)quinazolin-8-yl)-2,7-diazaspiro[4.4]nonan-2-yl)ethan-1-one] |
| < 200 | < 200 | > 2000 | < 200 | > 2000 | 500 to 2000 | CS(=O)(=O)N1CCC(Nc2ncc3cccc(N4CCC5(CCOCC5)C4)c3n2)CC1 [Example 26, N-(1-(methylsulfonyl)piperidin-4-yl)-8-(8-oxa-2-azaspiro[4.5]decan-2-yl)quinazolin-2-amine] |
| 200 to 500 | > 2000 | > 2000 | 500 to 2000 | > 2000 | > 2000 | CC(=O)N1CCC2(CCN(c3cccc4cnc(Nc5ccc(N6CC7(COC7)C6)cn5)nc34)C2)C1 (stereo not shown) [Example 41, 1-(7-(2-((5-(2-oxa-6-azaspiro[3.3]heptan-6-yl)pyridin-2-yl)amino)quinazolin-8-yl)-2,7-diazaspiro[4.4]nonan-2-yl)ethan-1-one] |
| < 200 | 500 to 2000 | 200 to 500 | 500 to 2000 | 500 to 2000 | 500 to 2000 | CC(=O)N1CCC2(CCN(c3cc(C(F)F)cc4cnc(Nc5cnn(C(C)C)c5)nc34)C2)C1 (stereo not shown) [Example 52, 1-(7-(6-(difluoromethyl)-2-((1-isopropyl-1H-pyrazol-4-yl)amino)quinazolin-8-yl)-2,7-diazaspiro[4.4]nonan-2-yl)ethan-1-one] |
| < 200 | < 200 | > 2000 | < 200 | > 2000 | 200 to 500 | CS(=O)(=O)N1CCC(Nc2ncc3cccc(N4CC(CC#N)C4)c3n2)CC1 [Example 14, 2-(1-(2-((1-(methylsulfonyl)piperidin-4-yl)amino)quinazolin-8-yl)azetidin-3-yl)acetonitrile] |
| 200 to 500 | > 2000 | 500 to 2000 | 500 to 2000 | > 2000 | > 2000 | COCCN1CC2(CCN(c3cccc4cnc(Nc5ccc(N6CC7(COC7)C6)cn5)nc34)C2)C1 [Example 43, N-(5-(2-oxa-6-azaspiro[3.3]heptan-6-yl)pyridin-2-yl)-8-(2-(2-methoxyethyl)-2,6-diazaspiro[3.4]octan-6-yl)quinazolin-2-amine] |
| < 200 | > 2000 | 500 to 2000 | < 200 | > 2000 | > 2000 | CCN1CC2(C1)CN(c1ccc(Nc3ncc4cccc(N5CC6(CC(O)C6)C5)c4n3)nc1)C2 [Example 48, 2-(2-((5-(6-ethyl-2,6-diazaspiro[3.3]heptan-2-yl)pyridin-2-yl)amino)quinazolin-8-yl)-2-azaspiro[3.3]heptan-6-ol] |
| < 200 | < 200 | > 2000 | 500 to 2000 | > 2000 | 500 to 2000 | COCCN1CC2(C1)CN(c1cccc3cnc(NC4CCN(S(C)(=O)=O)CC4)nc13)C2 [Example 36, 8-(6-(2-methoxyethyl)-2,6-diazaspiro[3.3]heptan-2-yl)-N-(1-(methylsulfonyl)piperidin-4-yl)quinazolin-2-amine] |
| < 200 | < 200 | > 2000 | < 200 | > 2000 | 200 to 500 | CS(=O)(=O)N1CCC(Nc2ncc3cccc(N4CCC4CO)c3n2)CC1 (stereo not shown) [Example 10, (1-(2-((1-(methylsulfonyl)piperidin-4-yl)amino)quinazolin-8-yl)azetidin-2-yl)methanol] |
| < 200 | > 2000 |  | 200 to 500 | > 2000 | > 2000 | CCN1CC2(C1)CN(c1ccc(Nc3ncc4cccc(N5CC6(CCS6(=O)=O)C5)c4n3)nc1)C2 [Example 44, 6-(2-((5-(6-ethyl-2,6-diazaspiro[3.3]heptan-2-yl)pyridin-2-yl)amino)quinazolin-8-yl)-1-thia-6-azaspiro[3.3]heptane 1,1-dioxide] |
| 500 to 2000 | < 200 |  | > 2000 |  | > 2000 | CS(=O)(=O)N1CCC(Nc2ncc3cccc(N4CC5(CCOCC5)C4C4CC4)c3n2)CC1 (stereo not shown) [Example 16, 8-(1-cyclopropyl-7-oxa-2-azaspiro[3.5]nonan-2-yl)-N-(1-(methylsulfonyl)piperidin-4-yl)quinazolin-2-amine] |
| 200 to 500 | 200 to 500 |  | > 2000 |  | > 2000 | CC1(C)CC2(CN(c3cccc4cnc(NC5CCN(S(C)(=O)=O)CC5)nc34)C2)C1 [Example 21, 8-(6,6-dimethyl-2-azaspiro[3.3]heptan-2-yl)-N-(1-(methylsulfonyl)piperidin-4-yl)quinazolin-2-amine] |
| 500 to 2000 | 200 to 500 |  | 500 to 2000 |  | > 2000 | CS(=O)(=O)N1CCC(Nc2ncc3cccc(N4CCCC5(COC5)C4)c3n2)CC1 [Example 8, N-(1-(methylsulfonyl)piperidin-4-yl)-8-(2-oxa-6-azaspiro[3.5]nonan-6-yl)quinazolin-2-amine] |
| 200 to 500 | 200 to 500 |  | 500 to 2000 |  | > 2000 | CS(=O)(=O)N1CCC(Nc2ncc3cccc(N4CCN(S(C)(=O)=O)CC4)c3n2)CC1 [Example 12, 8-(4-(methylsulfonyl)piperazin-1-yl)-N-(1-(methylsulfonyl)piperidin-4-yl)quinazolin-2-amine] |
| 200 to 500 | < 200 |  | 500 to 2000 |  | > 2000 | CCN(CC)C1CCN(c2cccc3cnc(NC4CCN(S(C)(=O)=O)CC4)nc23)CC1 [Example 20, 8-(4-(diethylamino)piperidin-1-yl)-N-(1-(methylsulfonyl)piperidin-4-yl)quinazolin-2-amine] |
